# Reference: US20110281869A1, “TETRAHYDROISOQUINOLINES AS ANTIMALARIAL AGENTS” (priority 2008, published 2011)
# Test system: P. falciparum K1
# Test: Plasmodium falciparum in vitro assay ([3H] hypoxanthine incorporation)
# Type: cell-based
# Settings: Plasmodium falciparum; erythrocytic stages, strain K1 resistant to chloroquine and pyrimethamine, human red cells; read-out: IC50 (nM) on K1
row,SMILES,IC50
1,"Cc1ncc(C=CC(=O)N(Cc2ccc(-c3ccncc3)cc2)[C@@H](Cc2ccccc2)C(=O)N2CCc3ccccc3C2)n1C [Example 246, (S)—N-[1-Benzyl-2-(3,4-dihydro-1H-isoquinolin-2-yl)-2-oxo-ethyl]-3-(2,3-dimethyl-3H-imidazol-4-yl)-N-(4-pyridin-4-yl-benzyl)-acrylamide]",17 nM
2,"Cc1nc(C)c(C=CC(=O)N(Cc2ccc(-c3ccncc3)cc2)[C@@H](Cc2ccccc2)C(=O)N2CCc3ccccc3C2)s1 [Example 247, (S)—N-[1-Benzyl-2-(3,4-dihydro-1H-isoquinolin-2-yl)-2-oxo-ethyl]-3-(2,4-dimethyl-thiazol-5-yl)-N-(4-pyridin-4-yl-benzyl)-acrylamide]",4 nM
3,"O=C([C@H](Cc1ccccc1)N(Cc1ccc(-c2ccccn2)cc1)C(=O)C=Cc1ccc(C(F)(F)F)nc1)N1CCc2cc(F)ccc2C1 [Example 78, (S)—N-[1-Benzyl-2-(6-fluoro-3,4-dihydro-1H-isoquinolin-2-yl)-2-oxo-ethyl]-N-(4-pyridin-2-yl-benzyl)-3-(6-trifluoromethyl-pyridin-3-yl)-acrylamide]",52 nM
4,"Cc1c(C=CC(=O)N(Cc2ccc(-c3ccccn3)cc2)[C@@H](Cc2ccccc2)C(=O)N2CCc3ccccc3C2)cnn1C [Example 65, (S)—N-[1-Benzyl-2-(3,4-dihydro-1H-isoquinolin-2-yl)-2-oxo-ethyl]-3-(1,5-dimethyl-1H-pyrazol-4-yl)-N-(4-pyridin-2-yl-benzyl)-acrylamide]",10 nM
5,"Cc1nn(C)c(C)c1C=CC(=O)N(Cc1ccc(-n2ccnn2)cc1)[C@@H](Cc1ccccc1)C(=O)N1CCc2ccccc2C1 [Example 157, (S)—N-[1-Benzyl-2-(3,4-dihydro-1H-isoquinolin-2-yl)-2-oxo-ethyl]-N-(4-[1,2,3]-triazol-1-yl-benzyl)-3-(1,3,5-trimethyl-1H-pyrazol-4-yl)-acrylamide]",2 nM

# Same assay, conditions: erythrocytic stages, strain K1 resistant to chloroquine and pyrimethamine, human red cells; read-out: IC50 (nM) on K1
row,SMILES,IC50
1,"Cc1ccc(C=CC(=O)N(Cc2ccc(-c3ccccn3)cc2)[C@@H](Cc2ccccc2)C(=O)N2CCc3ccccc3C2)cc1 [Example 32, (S)—N-[1-Benzyl-2-(3,4-dihydro-1-H-isoquinolin-2-yl)-2-oxo-ethyl]-N-(4-pyridin-2-yl-benzyl)-3-p-tolyl-acrylamide]",7.5 nM
2,"CN(C)c1ccc(C=CC(=O)N(Cc2ccc(-c3ccccn3)cc2)[C@@H](Cc2ccccc2)C(=O)N2CCc3ccccc3C2)cc1 [Example 38, (S)—N-[1-Benzyl-2-(3,4-dihydro-1-H-isoquinolin-2-yl)-2-oxo-ethyl]-3-(4-dimethylamino-phenyl)-N-(4-pyridin-2-yl-benzyl)-acrylamide]",10 nM
3,"O=C([C@H](Cc1ccccc1)N(Cc1ccc(-c2cc[n+]([O-])cc2)cc1)C(=O)C=Cc1ccc(C(F)(F)F)cc1)N1CCc2ccccc2C1 [Example 254, (S)—N-[1-Benzyl-2-(3,4-dihydro-1-H-isoquinolin-2-yl)-2-oxo-ethyl]-N-[4-(1-oxy-pyridin-4-yl)-benzyl]-3-(4-trifluoromethyl-phenyl)-acrylamide]",< 7.8 nM
